# How the values were obtained:
# Assay type in all cases: in vivo, C57BL/6J male mice
# [1] = Body weight, food intake and organ weights of aged mice fed 3% D-ribo-2-hexulose diet for 12 weeks
# Method: Twenty-one 48-week-old C57BL/6J male mice and seven 8-week-old C57BL/6J male mice were purchased from JA BIO Inc. (Korea). The purchased animals were raised in a breeding room with a controlled temperature (20 to 23° C.) and a light/dark cycle (a 12-hour cycle), and were provided with pelletized commercial non-purified feed for the first week.
# (§1) Specifically, a negative control group (NC, n=7, American Institute of Nutrition AIN-93G Semisynthetic diet); a D-ribo-2-hexulose-treated group (D-ribo-2-hexulose; DRH, n=7; a portion of cellulose in AIN-93G was replaced with 3% D-ribo-2-hexulose). […] The dose of D-ribo-2-hexulose was set at 3% based on previous animal studies. In the previous studies, the dose of D-ribo-2-hexulose was determined to be 3% in order to investigate a biological effect at a lower dose than the dose. During the experiment, the mice had free access to distilled water, and the food intakes and body weights of the mice were measured weekly, and blood glucose was measured once every 4 weeks. All animal experiments were approved by the Animal Research Ethics Committee of KyungPook National University (Approval Number: KNU-2020-109).
# [2] = Muscle and liver glycogen and fasting blood glucose
# Method: as §1
# [3] = Lipid profiles of muscles and plasma
# Method: Plasma TG and TC analysis was performed using an enzyme kit (Asan Pharmaceutical Co., Ltd., Korea). Free fatty acid (FFA) was also measured using an enzyme kit (Abcam., USA). Liver and muscle lipids were extracted, and the dried lipid residue was then dissolved in 1 mL of ethanol for the measurement of TG, TC, and FFA. For emulsification, Triton X-100 and a sodium cholate solution were added to 200 μL of the dissolved lipid solution. The TG, TC, and FFA were analyzed in the same kit as the enzyme kit used for plasma lipid analysis.
# TNF-α, IL-4, IL-1β, IL-6 = assay: Plasma inflammatory cytokine levels; conditions: between the groups (YC, NC, DRH)
# Method: (§2) For cytokine analysis, plasma cytokines (TNF-α, IL-1β, and IL-4) were measured with a Merck Millipore product (MCYTOMAG-70K, Merck, USA). Plasma (30 μL) from each mouse was analyzed in duplicate. Hormone analysis was performed using a cortisol and testosterone parameter assay kit (R&D Systems, USA).
# TNF-α = assay: Western blotting of TNF-α expression; conditions: DRH group vs NC group
# Method: The amount of cytoplasmic and membrane proteins was quantified according to the Bradford method. Thereafter, a protein load was applied onto a 10% SDS-polyacrylamide gel, transferred to a Tris-glycine electrophoresis buffer for an hour, and then electrophoresed. The positions of the bands were confirmed using a Ponceau solution, blocking (5% skim milk in TBS/0.1% Tween-20) was performed at room temperature for 60 minutes in order to reduce non-specific reactions to the membrane. Then, the samples were reacted with a primary antibody overnight at 4° C. […]
# aged mice = assay: Whole-body tension (digital force gauge); conditions: DRH group; decrease in NC vs YC
# Method: The whole-body tension was measured and evaluated using a digital force gauge (Korea, JM Instruments Corp., FGJN.FGP Series). For each mouse, the whole-body tension was measured and evaluated at intervals of 5 days. In order to evaluate the whole-body tension on week 10 of the experiment, the average value of the maximum whole-body tension was calculated as force per body weight (Ng^−1 BW).
# [4] = test system: insulin-like growth factor 1 (IGF-1); assay: IHC analysis of muscle tissue, IGF-1; conditions: reduction in NC vs YC
# Method: For morphological tissue observation, parts of liver and muscle tissues were fixed with a 10% formaldehyde solution for 24 hours. Thereafter, the samples were subjected to replacement with the same solution twice, dehydrated twice with ethanol, embedded in paraffin, and treated with poly-L-lysine to prepare tissue slices having a thickness of 5 μm. For morphological analysis, among the prepared tissue sections, the liver tissue was stained with H&E and MT, and the muscle tissue was stained with H&E and Sirius red, and magnified 200 times under an optical microscope. For IHC analysis, the muscle tissue was stained with IGF-1 and Myostatin, and then observed under an optical microscope.
# [5] = Testosterone and cortisol levels
# Method: as §2
# [6] = DRH group, aged mice, AIN-93G + 3% DRH 12 weeks, Mean ± SD
smiles,measurement,setting,value
"O=C(CO)[C@H](O)[C@H](O)[C@H](O)CO [DRH, D-ribo-2-hexulose]",final body weight,[1]; DRH group vs NC group,significantly lower
same,kidney weight,[1]; DRH group vs NC group,increased
same,liver weight,[1]; DRH group vs NC group,decreased
same,spleen weight,[1]; DRH group vs NC group,no significant difference
same,weight gain,[1]; DRH group vs NC group,significantly lower
same,Final BW,[1]; [6],37.59 ± 0.56^$$ g
same,Total BWG,[1]; [6],1.36 ± 0.20^$$$ g
same,kidney weight,[1]; [6],1.10 ± 0.02^$$ g per 100 g BW
same,liver weight,[1]; [6],3.71 ± 0.07^$ g per 100 g BW
same,spleen weight,[1]; [6],0.20 ± 0.02 ^ g per 100 g BW
same,fasting blood glucose level,"[2]; at 12 weeks, DRH group vs NC group",significantly decreased
same,liver glycogen content,[2]; between the groups,not significantly different
same,muscle glycogen content,"[2]; quadriceps, between the groups",not significantly different
same,muscle fatty acid level,[3]; DRH group vs NC group,no significant difference
same,muscle total cholesterol (TC) level,[3]; DRH group vs NC group,no significant difference
same,plasma fatty acids,[3]; DRH group vs NC group,significantly decreased
same,plasma TC level,[3]; increase in NC vs YC,improved
same,plasma TG level,[3]; increase in NC vs YC,improved
same,muscle triglyceride (TG) level,[3]; increase with aging,significantly reduced this increase
same,level of inflammatory cytokine IL-1β,"TNF-α, IL-4, IL-1β, IL-6",not significantly different
same,level of inflammatory cytokine IL-4,"TNF-α, IL-4, IL-1β, IL-6",not significantly different
same,level of inflammatory cytokine IL-6,"TNF-α, IL-4, IL-1β, IL-6",not significantly different
same,level of inflammatory cytokine TNF-α,"TNF-α, IL-4, IL-1β, IL-6",not significantly different
same,TNF-α expression,TNF-α,significantly decreased
same,whole-body tension,aged mice,dramatically compensated for the decrease
same,expression level of IGF-1,[4],improved this reduction
same,cortisol level,[5]; DRH group,decreased
same,testosterone level,[5]; DRH group vs NC group,did not show a significant difference
